Measurements reported in patent US12180193B2, “Accelerating fibrosarcoma protein degrading compounds and associated methods of use” (Arvinas Operations, Inc., priority 2020, dated 2024).
Where two headings read alike, the source gives them in different places.

How the values were obtained:
BRAF V600E = molecular target: T1, BRAF V600E (Homo sapiens, UniProt P15056, V600E); test: Cellular assay of target protein degradation, T-Rex 293 cells stably transfected with HA-BRAF_V600E (HA immunofluorescence, high content imaging); assay type: cell-based
T1 construct: expressed in transfected cells
T1 sequence (P15056 whole entry V600E): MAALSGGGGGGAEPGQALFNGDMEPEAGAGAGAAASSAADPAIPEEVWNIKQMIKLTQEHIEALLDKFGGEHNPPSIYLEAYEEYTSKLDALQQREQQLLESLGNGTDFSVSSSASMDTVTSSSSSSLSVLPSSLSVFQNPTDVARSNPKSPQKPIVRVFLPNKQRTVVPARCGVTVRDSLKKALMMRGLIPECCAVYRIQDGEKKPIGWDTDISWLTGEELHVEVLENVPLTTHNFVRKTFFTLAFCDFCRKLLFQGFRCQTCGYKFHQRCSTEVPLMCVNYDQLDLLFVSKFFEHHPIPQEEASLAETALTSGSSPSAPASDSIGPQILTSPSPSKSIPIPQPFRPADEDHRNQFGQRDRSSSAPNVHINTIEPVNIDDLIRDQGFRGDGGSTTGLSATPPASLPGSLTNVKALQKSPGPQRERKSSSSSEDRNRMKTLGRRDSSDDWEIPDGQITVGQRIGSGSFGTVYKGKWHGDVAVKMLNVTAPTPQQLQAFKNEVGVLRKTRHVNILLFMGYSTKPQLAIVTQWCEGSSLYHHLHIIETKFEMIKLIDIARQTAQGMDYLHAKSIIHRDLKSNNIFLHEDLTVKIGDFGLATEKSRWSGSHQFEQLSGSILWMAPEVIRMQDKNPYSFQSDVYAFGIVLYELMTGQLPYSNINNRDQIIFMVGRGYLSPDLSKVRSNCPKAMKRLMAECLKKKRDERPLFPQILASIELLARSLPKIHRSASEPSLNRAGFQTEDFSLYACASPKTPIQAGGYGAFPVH
Outline: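 Doxycycline-induced (1 ng/mL) cells were treated 24 h at 37 °C with compound at 1 μM to 0.1 nM final in 0.1% DMSO. After fixation, permeabilization and blocking, anti-HA staining was imaged by high-content reading; DC50 and Dmax (% of control) were derived.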

BRAF G466V = molecular target: T2, BRAF G466V (Homo sapiens, UniProt P15056, G466V); test: Cellular assay of target protein degradation, T-Rex 293 cells stably transfected with HA-BRAF G466V (HA immunofluorescence, high content imaging); assay type: cell-based
T2 construct: expressed in transfected cells
T2 sequence (P15056 whole entry G466V): as the sequence (P15056 whole entry V600E) above, with G466V, E600V counted along it
Outline: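 Cells expressing doxycycline-induced (0.75 ng/mL) HA-BRAF G466V were treated with compound at 30 nM to 3 pM in 0.1% DMSO for 24 hours at 37° C. After fixation and permeabilization, HA was immunostained and quantified by high content imaging to derive DC50 and Dmax.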

[1] = half maximal degradation, T-Rex 293 HA-BRAF V600E; read-out: BRaf V600E DC50
[2] = maximum degradation observed, T-Rex 293 HA-BRAF V600E
[3] = half maximal degradation, T-Rex 293 HA-BRAF G466V; read-out: BRaf G466V DC50
[4] = maximum degradation observed, T-Rex 293 HA-BRAF G466V
[5] = read-out: BRaf V600E DC50; half maximal degradation, T-Rex 293 HA-BRAF V600E
[6] = read-out: BRaf G466V DC50; half maximal degradation, T-Rex 293 HA-BRAF G466V

COc1cc(N2CCN(CC3CCN(c4ccc(-c5cnc6[nH]cc(C(=O)c7c(F)ccc(NS(=O)(=O)N8CC[C@@H](F)C8)c7F)c6c5)cc4)CC3)CC2)ccc1C(=O)NC1CCC(=O)NC1=O (stereo partly drawn) [Compound 360, 4-(4-{[1-(4-{3-[2,6-difluoro-3-({[(3R)-3-fluoropyrrolidin-1-yl]sulfonyl}amino)benzoyl]-1H-pyrrolo[2,3-b]pyridin-5-yl}phenyl)piperidin-4-yl]methyl}piperazin-1-yl)-N-(2,6-dioxopiperidin-3-yl)-2-methoxybenzamide]
DC50 (BRAF V600E; [1]): < 5 nM
Dmax (BRAF V600E; [2]): < 35%
DC50 (BRAF G466V; [3]): 1 to 10 nM
Dmax (BRAF G466V; [4]): > 70%

O=C1CCC(N2Cc3cc(N4CCC(CN5CCCN(c6ccc(-c7cnc8[nH]cc(C(=O)c9c(F)ccc(NS(=O)(=O)N%10CC[C@@H](F)C%10)c9F)c8c7)cc6)CC5)CC4)ccc3C2=O)C(=O)N1 (stereo partly drawn) [Compound 322, (3R)-N-[3-(5-{4-[4-({1-[2-(2,6-dioxopiperidin-3-yl)-1-oxo-2,3-dihydro-1H-isoindol-5-yl]piperidin-4-yl}methyl)-1,4-diazepan-1-yl]phenyl}-1H-pyrrolo[2,3-b]pyridine-3-carbonyl)-2,4-difluorophenyl]-3-fluoropyrrolidine-1-sulfonamide]
Dmax (BRAF V600E; [2]): < 35%
DC50 (BRAF V600E; [5]): 50 to 500 nM
Dmax (BRAF G466V; [4]): 35 to 70%
DC50 (BRAF G466V; [6]): 1 to 10 nM

C[C@H]1CCCN1S(=O)(=O)Nc1ccc(F)c(C(=O)c2c[nH]c3ncc(-c4ccc(N5CCC(CN6CCC(c7ccc8c(c7)CN([C@H]7CCC(=O)NC7=O)C8=O)CC6)CC5)cc4)cc23)c1F [Compound 211, (2S)—N-{3-[5-(4-{4-[(4-{2-[(3S)-2,6-dioxopiperidin-3-yl]-1-oxo-2,3-dihydro-1H-isoindol-5-yl}piperidin-1-yl)methyl]piperidin-1-yl}phenyl)-1H-pyrrolo[2,3-b]pyridine-3-carbonyl]-2,4-difluorophenyl}-2-methylpyrrolidine-1-sulfonamide]
DC50 (BRAF V600E; [1]): 5 to 50 nM
Dmax (BRAF V600E; [2]): 35 to 70%
DC50 (BRAF G466V; [3]): 1 to 10 nM
Dmax (BRAF G466V; [4]): 35 to 70%

COc1cc(N2CC3(C2)CN(CC2CCN(c4ccc(-c5cnc6[nH]cc(C(=O)c7c(F)ccc(NS(=O)(=O)N8CC[C@@H](F)C8)c7F)c6c5)cc4)CC2)[C@@H]3C)cc2c1C(=O)N(C1CCC(=O)NC1=O)C2 (stereo partly drawn) [Compound 20, (3R)-N-(3-{5-[4-(4-{[(1R)-6-[2-(2,6-dioxopiperidin-3-yl)-7-methoxy-1-oxo-2,3-dihydro-1H-isoindol-5-yl]-1-methyl-2,6-diazaspiro[3.3]heptan-2-yl]methyl}piperidin-1-yl)phenyl]-1H-pyrrolo[2,3-b]pyridine-3-carbonyl}-2,4-difluorophenyl)-3-fluoropyrrolidine-1-sulfonamide]
DC50 (BRAF V600E; [1]): 5 to 50 nM
Dmax (BRAF V600E; [2]): 35 to 70%
DC50 (BRAF G466V; [3]): < 1 nM
Dmax (BRAF G466V; [4]): 35 to 70%

O=C1CCC(N2Cc3cc(N4CCN(CCc5ccc(-c6cnc7[nH]cc(C(=O)c8c(F)ccc(NS(=O)(=O)N9CC[C@@H](F)C9)c8F)c7c6)cc5)CC4)c(F)cc3C2=O)C(=O)N1 (stereo partly drawn) [Compound 152, (3R)-N-(3-{5-[4-(2-{4-[2-(2,6-dioxopiperidin-3-yl)-6-fluoro-1-oxo-2,3-dihydro-1H-isoindol-5-yl]piperazin-1-yl}ethyl)phenyl]-1H-pyrrolo[2,3-b]pyridine-3-carbonyl}-2,4-difluorophenyl)-3-fluoropyrrolidine-1-sulfonamide]
DC50 (BRAF V600E; [1]): 5 to 50 nM
Dmax (BRAF V600E; [2]): 35 to 70%
DC50 (BRAF G466V; [3]): 1 to 10 nM
Dmax (BRAF G466V; [4]): > 70%

O=C1CCC(N2Cc3cc(N4CC(C5CN(c6ccc(-c7cnc8[nH]cc(C(=O)c9c(F)ccc(NS(=O)(=O)N%10CC[C@@H](F)C%10)c9F)c8c7)cc6)C5)C4)ccc3C2=O)C(=O)N1 (stereo partly drawn) [Compound 159, (3R)-N-{3-[5-(4-{1′-[2-(2,6-dioxopiperidin-3-yl)-1-oxo-2,3-dihydro-1H-isoindol-5-yl]-[3,3′-biazetidin]-1-yl}phenyl)-1H-pyrrolo[2,3-b]pyridine-3-carbonyl]-2,4-difluorophenyl}-3-fluoropyrrolidine-1-sulfonamide]
DC50 (BRAF V600E; [1]): > 500 nM
DC50 (BRAF G466V; [3]): > 30 nM

CCCS(=O)(=O)Nc1ccc(F)c(C(=O)c2c[nH]c3ncc(-c4ccc(N5CC6(CN(CC7CCN(c8cc9c(c(OC)c8)C(=O)N([C@@H]8CCC(=O)NC8=O)C9)CC7)C6)C5)cc4)cc23)c1F [Compound 238, N-{3-[5-(4-{6-[(1-{2-[(3R)-2,6-dioxopiperidin-3-yl]-7-methoxy-1-oxo-2,3-dihydro-1H-isoindol-5-yl}piperidin-4-yl)methyl]-2,6-diazaspiro[3.3]heptan-2-yl}phenyl)-1H-pyrrolo[2,3-b]pyridine-3-carbonyl]-2,4-difluorophenyl}propane-1-sulfonamide]
DC50 (BRAF V600E; [1]): 5 to 50 nM
Dmax (BRAF V600E; [2]): 35 to 70%
DC50 (BRAF G466V; [3]): 1 to 10 nM
Dmax (BRAF G466V; [4]): > 70%

O=C1CCC(N2Cc3cc(CN4CCN(c5ccc(-c6cnc7[nH]cc(C(=O)c8c(F)ccc(NS(=O)(=O)N9CC[C@@H](F)C9)c8F)c7c6)cc5)C[C@H]4CO)ccc3C2=O)C(=O)N1 (stereo partly drawn) [Compound 112, (3R)-N-[3-(5-{4-[(3S)-4-{[2-(2,6-dioxopiperidin-3-yl)-1-oxo-2,3-dihydro-1H-isoindol-5-yl]methyl}-3-(hydroxymethyl)piperazin-1-yl]phenyl}-1H-pyrrolo [2,3-b]pyridine-3-carbonyl)-2,4-difluorophenyl]-3-fluoropyrrolidine-1-sulfonamide]
DC50 (BRAF V600E; [1]): 50 to 500 nM
Dmax (BRAF V600E; [2]): < 35%
DC50 (BRAF G466V; [3]): 10 to 30 nM
Dmax (BRAF G466V; [4]): 35 to 70%

O=C1CC[C@@H](N2Cc3cc(OCCCN4CC5(C4)CN(c4ccc(-c6cnc7[nH]cc(C(=O)c8c(F)ccc(NS(=O)(=O)N9CC[C@@H](F)C9)c8F)c7c6)cc4)C5)ccc3C2=O)C(=O)N1 [Compound 81, (3R)-N-{3-[5-(4-{6-[3-({2-[(3R)-2,6-dioxopiperidin-3-yl]-1-oxo-2,3-dihydro-1H-isoindol-5-yl}oxy)propyl]-2,6-diazaspiro[3.3]heptan-2-yl}phenyl)-1H-pyrrolo[2,3-b]pyridine-3-carbonyl]-2,4-difluorophenyl}-3-fluoropyrrolidine-1-sulfonamide]
DC50 (BRAF V600E; [1]): 5 to 50 nM
Dmax (BRAF V600E; [2]): 35 to 70%
DC50 (BRAF G466V; [3]): 1 to 10 nM
Dmax (BRAF G466V; [4]): > 70%

CC(C)(C1CCN(c2ccc(-c3cnc4[nH]cc(C(=O)c5c(F)ccc(NS(=O)(=O)N6CC[C@@H](F)C6)c5F)c4c3)cc2)CC1)N1CC2(CN(c3ccc4c(c3)CN(C3CCC(=O)NC3=O)C4=O)C2)C1 (stereo partly drawn) [Compound 60, (3R)-N-[3-(5-{4-[4-(2-{6-[2-(2,6-dioxopiperidin-3-yl)-1-oxo-2,3-dihydro-1H-isoindol-5-yl]-2,6-diazaspiro[3.3]heptan-2-yl}propan-2-yl)piperidin-1-yl]phenyl}-1H-pyrrolo[2,3-b]pyridine-3-carbonyl)-2,4-difluorophenyl]-3-fluoropyrrolidine-1-sulfonamide]
Dmax (BRAF V600E; [2]): 35 to 70%
DC50 (BRAF V600E; [5]): 5 to 50 nM
Dmax (BRAF G466V; [4]): > 70%
DC50 (BRAF G466V; [6]): 1 to 10 nM

O=C1CC[C@H](N2Cc3cc([C@@H](O)CCN4CCC(c5ccc(-c6cnc7[nH]cc(C(=O)c8c(F)ccc(NS(=O)(=O)N9CC[C@@H](F)C9)c8F)c7c6)cc5)CC4)ccc3C2=O)C(=O)N1 [Compound 71, (3R)-N-{3-[5-(4-{1-[(3S)-3-{2-[(3S)-2,6-dioxopiperidin-3-yl]-1-oxo-2,3-dihydro-1H-isoindol-5-yl}-3-hydroxypropyl]piperidin-4-yl}phenyl)-1H-pyrrolo[2,3-b]pyridine-3-carbonyl]-2,4-difluorophenyl}-3-fluoropyrrolidine-1-sulfonamide]
DC50 (BRAF V600E; [1]): 5 to 50 nM
Dmax (BRAF V600E; [2]): 35 to 70%
DC50 (BRAF G466V; [3]): 1 to 10 nM
Dmax (BRAF G466V; [4]): > 70%
